We go through three compounds from US20100227853A1, “INHIBITORS OF CYCLIC AMP PHOSPHODIESTERASES” (Trustees of Boston College, priority 2008, published 2010).

Test [1] addresses PDE4B2 (Homo sapiens, UniProt Q07343). The experiment in a line: in vitro enzyme assay, E. coli expressed and purified PDE4B2. The test is classed as biochemical. Also noted: targets used in the assays are full-length proteins (as opposed to simply the catalytic domain). The settings on record: read-out: IC50 (or AC200), PDE4B2.
Test [2] deals with U937 cells. The experiment in a line: TNF alpha release by LPS-treated U937 cells. The settings on record: for TNF alpha, % vehicle control: 10 uM cmpd, 0 uM BC30. The test is classed as cell-based.
For test [3], the target named is PDE4B (Homo sapiens, UniProt Q07343). The experiment in a line: in vitro enzyme assay PDE4B (Table 7). The test is classed as biochemical. The note with it: 2 micromolar compound; read-out: percent of PDE activity present, PDE4B.
Test [4] deals with T1, PDE7B (Homo sapiens, UniProt Q9NP56). Description: in vitro enzyme assay, PDE7B catalytic domain from E. coli, hydrolysis of cAMP to AMP. The class given is biochemical. Also noted: The PDE7B catalytic domain was expressed in and purified from E. coli; made in house; host or cells: E. coli. The settings on record: for IC50: AC200 = [Compound] that doubles PDE activity, read-out: IC50 (or AC200), PDE7B. As for the experimental part:
The PDE7B catalytic domain was expressed in and purified from E. coli and tested for activity in an in vitro enzyme assay, measuring the hydrolysis of cAMP to AMP. Four dilutions of the enzyme preparation were tested at various compound concentrations (X axis). The percent of cAMP hydrolyzed is plotted on the Y axis.
Target sequence in this assay (Q9NP56 97-420 limits assumed, species assumed): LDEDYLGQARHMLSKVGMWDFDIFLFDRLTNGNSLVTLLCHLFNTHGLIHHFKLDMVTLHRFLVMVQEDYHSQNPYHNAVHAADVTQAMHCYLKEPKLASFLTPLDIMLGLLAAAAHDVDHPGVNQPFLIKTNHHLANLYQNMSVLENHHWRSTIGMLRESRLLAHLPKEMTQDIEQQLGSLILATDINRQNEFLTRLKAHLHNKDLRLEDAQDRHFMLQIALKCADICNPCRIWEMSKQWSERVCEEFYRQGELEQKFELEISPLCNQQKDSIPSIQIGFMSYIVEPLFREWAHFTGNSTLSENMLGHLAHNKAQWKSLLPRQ

Test [5] concerns the target PDE4D (Homo sapiens, UniProt Q08499). The experiment in a line: in vitro enzyme assay PDE4D (Table 7). The class given is biochemical. The note with it: 2 micromolar compound; read-out: percent of PDE activity present, PDE4D.
In test [6] the target is PDE4A (Homo sapiens, UniProt P27815). The experiment in a line: in vitro enzyme assay PDE4A (Table 7). The class given is biochemical. The note with it: 2 micromolar compound; read-out: percent of PDE activity present, PDE4A.
PDE4A, sequence (P27815 whole entry, species assumed): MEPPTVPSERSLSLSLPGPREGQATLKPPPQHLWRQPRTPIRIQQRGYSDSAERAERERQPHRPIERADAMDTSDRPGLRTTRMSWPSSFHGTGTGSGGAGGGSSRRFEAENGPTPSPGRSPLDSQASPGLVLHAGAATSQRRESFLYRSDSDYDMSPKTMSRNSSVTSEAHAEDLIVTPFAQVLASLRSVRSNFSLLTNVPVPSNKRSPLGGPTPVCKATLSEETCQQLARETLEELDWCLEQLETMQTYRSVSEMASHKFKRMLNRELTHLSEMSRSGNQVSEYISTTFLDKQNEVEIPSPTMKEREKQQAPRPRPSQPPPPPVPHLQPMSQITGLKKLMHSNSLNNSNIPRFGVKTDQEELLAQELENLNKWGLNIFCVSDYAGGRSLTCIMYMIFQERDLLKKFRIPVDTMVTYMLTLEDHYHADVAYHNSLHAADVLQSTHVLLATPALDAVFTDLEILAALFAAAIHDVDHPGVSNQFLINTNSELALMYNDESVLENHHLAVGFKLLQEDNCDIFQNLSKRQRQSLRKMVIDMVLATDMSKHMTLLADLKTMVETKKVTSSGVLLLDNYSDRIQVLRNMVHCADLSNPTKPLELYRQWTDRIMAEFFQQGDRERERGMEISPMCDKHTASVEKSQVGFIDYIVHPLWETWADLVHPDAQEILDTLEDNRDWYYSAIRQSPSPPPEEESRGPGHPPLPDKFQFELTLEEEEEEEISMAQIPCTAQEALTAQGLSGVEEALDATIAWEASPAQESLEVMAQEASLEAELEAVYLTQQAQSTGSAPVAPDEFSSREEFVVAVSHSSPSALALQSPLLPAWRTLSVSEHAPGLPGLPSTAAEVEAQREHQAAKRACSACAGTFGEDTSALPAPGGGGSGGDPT
The target in test [7] is T2, PDE7A (Homo sapiens, UniProt Q13946). Description: in vitro enzyme assay PDE7A. The test is classed as biochemical. Also noted: made in house; host or cells: E. coli. The note with it: for IC50: E. coli expressed and purified enzyme, read-out: IC50 (or AC200), PDE7A.
T2 sequence (Q13946 whole entry): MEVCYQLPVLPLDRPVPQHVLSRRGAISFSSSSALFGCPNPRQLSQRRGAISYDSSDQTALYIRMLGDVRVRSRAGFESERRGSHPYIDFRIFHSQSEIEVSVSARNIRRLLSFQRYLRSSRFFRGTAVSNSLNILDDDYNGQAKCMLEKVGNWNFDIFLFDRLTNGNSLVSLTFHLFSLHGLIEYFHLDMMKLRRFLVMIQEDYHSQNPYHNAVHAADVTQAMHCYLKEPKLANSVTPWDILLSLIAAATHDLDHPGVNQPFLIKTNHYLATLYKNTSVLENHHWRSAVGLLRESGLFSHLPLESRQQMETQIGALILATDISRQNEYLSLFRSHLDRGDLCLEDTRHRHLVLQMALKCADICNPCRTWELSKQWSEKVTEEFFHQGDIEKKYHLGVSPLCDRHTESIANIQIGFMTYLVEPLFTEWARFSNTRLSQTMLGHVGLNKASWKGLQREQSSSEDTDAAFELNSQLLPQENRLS
Test [8] addresses T3, PDE4D2-CAT (Homo sapiens, UniProt Q08499).
T3 construct: 86-413; made in house; host or cells: E. coli
Description: in vitro enzyme assay, catalytic fragment of PDE4D2 (residues 86-413). The test is classed as biochemical.

Test [9] deals with T4, PDE4D2-FL (Homo sapiens, UniProt Q08499).
T4 construct: 1-507; made in house; host or cells: E. coli
T4 sequence (Q08499 303-809): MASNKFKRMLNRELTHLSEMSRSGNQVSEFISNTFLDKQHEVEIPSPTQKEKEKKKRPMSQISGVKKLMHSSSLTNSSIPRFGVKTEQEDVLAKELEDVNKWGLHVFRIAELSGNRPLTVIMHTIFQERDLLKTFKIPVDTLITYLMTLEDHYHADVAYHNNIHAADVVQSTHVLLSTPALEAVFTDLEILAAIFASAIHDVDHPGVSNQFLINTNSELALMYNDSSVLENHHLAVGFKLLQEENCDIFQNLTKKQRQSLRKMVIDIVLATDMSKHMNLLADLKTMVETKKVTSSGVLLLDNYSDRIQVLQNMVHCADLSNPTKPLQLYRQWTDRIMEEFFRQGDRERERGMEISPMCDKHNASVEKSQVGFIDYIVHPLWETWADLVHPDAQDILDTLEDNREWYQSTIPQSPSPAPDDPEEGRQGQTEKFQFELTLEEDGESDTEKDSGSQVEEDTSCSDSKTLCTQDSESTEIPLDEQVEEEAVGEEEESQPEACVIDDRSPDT
The experiment in a line: in vitro enzyme assay, full-length PDE4D2 (residues 1-507). The class given is biochemical. The settings on record: read-out: IC50 (or AC200), PDE4D2-FL.

The target of test [10] is T1, PDE7B. The experiment in a line: 5FOA growth assay in fission yeast strain expressing PDE7B. The class given is cell-based. Set-up: targets used in the assays are full-length proteins (as opposed to simply the catalytic domain); expressed in transfected cells; host or cells: Schizosaccharomyces pombe. As for the experimental part:
PDE inhibition allows growth in 5FOA medium as measured by optical density after 48 hours incubation at 30° C. Compound BC12 and six structural analogs were tested for growth stimulation.
Cells were pregrown in EMM medium [MP Biomedicals (Solon, Ohio), 3% glucose, filter-sterilized to avoid carmelization, which would introduce variability into the optical density of the medium] containing from 0 mM to 2.5 mM cAMP (or either 0.5 mM or 1.0 mM cGMP). This was to repress expression of the fbp1-ura4 reporter prior to exposure of cells to 5FOA medium. Cells were grown at 30° C. to exponential phase (approximately 10^7 cells/ml). Cells were collected by centrifugation and resuspended in 5FOA medium, and 25 μl were transferred to 384-well microtiter dishes (untreated, with flat clear bottoms) that had been pre-filled with 25 μl 5FOA medium and pre-pinned with 100 nl of compounds (stock solutions were generally 10 mM). Starting cell concentrations ranged from 0.5×10^5 to 4×10^5 cells/ml depending on the screening strain. […] Other positive control dishes contained 5 mM cAMP in the 5FOA medium for PDEs that lack appropriate control compounds. Cultures were grown for 48 hours at 30° C., sealed in an airtight container with moist paper towels to prevent evaporation. Optical densities (OD600) of cultures were measured using a microplate reader. Bioinformatic analysis of the results to determine composite Z scores was performed as previously described (1, 3).
Target sequence in this assay (Q9NP56 whole entry, species assumed, the tested form may be a part): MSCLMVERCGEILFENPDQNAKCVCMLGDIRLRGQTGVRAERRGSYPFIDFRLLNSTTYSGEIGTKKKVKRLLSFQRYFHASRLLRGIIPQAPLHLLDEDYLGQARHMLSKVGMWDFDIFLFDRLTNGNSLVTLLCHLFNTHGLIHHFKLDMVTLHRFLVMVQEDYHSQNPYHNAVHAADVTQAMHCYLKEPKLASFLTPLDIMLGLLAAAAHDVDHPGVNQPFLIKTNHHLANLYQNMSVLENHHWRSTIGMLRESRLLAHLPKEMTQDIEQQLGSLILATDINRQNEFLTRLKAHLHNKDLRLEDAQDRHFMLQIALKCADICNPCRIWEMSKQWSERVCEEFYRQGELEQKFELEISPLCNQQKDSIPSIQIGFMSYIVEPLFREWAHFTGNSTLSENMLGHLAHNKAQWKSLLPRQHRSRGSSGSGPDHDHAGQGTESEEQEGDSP

Test [11] deals with T2, PDE7A. The experiment in a line: 5FOA growth assay in fission yeast strain expressing PDE7A. The test is classed as cell-based. Also noted: targets used in the assays are full-length proteins (as opposed to simply the catalytic domain); expressed in transfected cells; host or cells: Schizosaccharomyces pombe, PDE gene integrated in place of cgs2. In a few lines: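 Fission yeast carrying an fbp1-ura4 reporter were pregrown to exponential phase at 30 °C in EMM with 0–2.5 mM cAMP (or 0.5/1.0 mM cGMP), then moved into 5FOA medium with 100 nl pinned compound (10 mM stocks). Growth was read as OD600 after 48 h at 30 °C and scored as composite Z scores.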

Test [12] concerns PDE4A, PDE4B, PDE4D, PDE7A, PDE7B, PDE8A, PDE3A. The experiment in a line: Summary of PDE inhibitor profile.
For test [13], the target named is T5, PDE7B (Rattus norvegicus, UniProt A0A0G2JXU0).
T5 construct: endogenous in cells; host or cells: rat pulmonary endothelial cells (extract)
T5 sequence (A0A0G2JXU0 1-446): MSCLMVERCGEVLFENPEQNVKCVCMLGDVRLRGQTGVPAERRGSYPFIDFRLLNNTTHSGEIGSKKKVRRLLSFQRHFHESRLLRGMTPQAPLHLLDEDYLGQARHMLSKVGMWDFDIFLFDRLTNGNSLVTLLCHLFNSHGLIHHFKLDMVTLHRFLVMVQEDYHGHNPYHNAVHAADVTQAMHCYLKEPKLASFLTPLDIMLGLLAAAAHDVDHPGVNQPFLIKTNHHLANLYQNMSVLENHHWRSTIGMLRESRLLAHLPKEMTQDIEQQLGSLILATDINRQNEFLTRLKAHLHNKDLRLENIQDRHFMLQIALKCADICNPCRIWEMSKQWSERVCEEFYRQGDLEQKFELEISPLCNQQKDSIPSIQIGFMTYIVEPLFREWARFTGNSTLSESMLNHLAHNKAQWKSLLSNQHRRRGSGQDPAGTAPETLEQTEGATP
Description: in vitro enzyme assay of PDE7B activity in extracts from rat pulmonary endothelial cells. The test is classed as biochemical. An excerpt:
FIG. 13 is the in vitro enzyme assays of PDE7B activity in extracts made from rat pulmonary endothelial cells.

The subject of test [14] is Lymphoma cells. The experiment in a line: in vitro assay on lymphoma cells (24 hours, Hoechst stain, fsc/ssc). The test is classed as cell-based. As for the experimental part:
FIGS. 6A and 6B show the in vitro assay of BC54 action. Lymphoma cells are treated with the drug for 24 hours, then stained with Hoechst dye. The cells form a clearly defined population on the fsc/ssc dot plot. Vincristine treatment was used as a positive control. […] BC54 is referred to in the figure as S54.

For test [15], the system named is CLL. Description: CLL assay. The class given is cell-based.
Setting [16] is: optical density after 48 hours at 30° C.

T3 sequence (Q08499 388-715): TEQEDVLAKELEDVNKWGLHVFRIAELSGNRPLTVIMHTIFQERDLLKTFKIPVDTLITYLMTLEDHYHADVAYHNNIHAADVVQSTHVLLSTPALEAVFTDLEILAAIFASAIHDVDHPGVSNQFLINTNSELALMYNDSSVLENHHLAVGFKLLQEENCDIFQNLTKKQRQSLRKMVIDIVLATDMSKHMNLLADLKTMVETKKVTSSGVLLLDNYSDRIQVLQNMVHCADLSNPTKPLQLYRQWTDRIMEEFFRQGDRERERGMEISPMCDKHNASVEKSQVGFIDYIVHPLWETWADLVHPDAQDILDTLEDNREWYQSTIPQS
PDE4B2, sequence (Q07343 1-564 isoform Q07343-2, species assumed): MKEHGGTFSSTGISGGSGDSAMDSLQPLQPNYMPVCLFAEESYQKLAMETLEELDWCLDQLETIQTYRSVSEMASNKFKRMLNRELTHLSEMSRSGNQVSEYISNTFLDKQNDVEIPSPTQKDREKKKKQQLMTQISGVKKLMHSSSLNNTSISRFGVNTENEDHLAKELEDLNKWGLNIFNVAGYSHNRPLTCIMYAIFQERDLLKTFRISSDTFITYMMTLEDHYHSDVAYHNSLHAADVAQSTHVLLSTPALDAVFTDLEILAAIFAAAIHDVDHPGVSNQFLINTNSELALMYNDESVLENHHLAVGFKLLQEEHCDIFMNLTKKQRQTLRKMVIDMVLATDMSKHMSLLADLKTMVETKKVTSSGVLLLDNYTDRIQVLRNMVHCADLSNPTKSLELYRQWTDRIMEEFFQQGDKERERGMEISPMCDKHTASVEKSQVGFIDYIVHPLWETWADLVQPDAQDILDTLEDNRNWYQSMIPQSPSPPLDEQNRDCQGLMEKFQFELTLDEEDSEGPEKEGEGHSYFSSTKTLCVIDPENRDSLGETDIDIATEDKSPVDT
PDE4D, sequence (Q08499 whole entry): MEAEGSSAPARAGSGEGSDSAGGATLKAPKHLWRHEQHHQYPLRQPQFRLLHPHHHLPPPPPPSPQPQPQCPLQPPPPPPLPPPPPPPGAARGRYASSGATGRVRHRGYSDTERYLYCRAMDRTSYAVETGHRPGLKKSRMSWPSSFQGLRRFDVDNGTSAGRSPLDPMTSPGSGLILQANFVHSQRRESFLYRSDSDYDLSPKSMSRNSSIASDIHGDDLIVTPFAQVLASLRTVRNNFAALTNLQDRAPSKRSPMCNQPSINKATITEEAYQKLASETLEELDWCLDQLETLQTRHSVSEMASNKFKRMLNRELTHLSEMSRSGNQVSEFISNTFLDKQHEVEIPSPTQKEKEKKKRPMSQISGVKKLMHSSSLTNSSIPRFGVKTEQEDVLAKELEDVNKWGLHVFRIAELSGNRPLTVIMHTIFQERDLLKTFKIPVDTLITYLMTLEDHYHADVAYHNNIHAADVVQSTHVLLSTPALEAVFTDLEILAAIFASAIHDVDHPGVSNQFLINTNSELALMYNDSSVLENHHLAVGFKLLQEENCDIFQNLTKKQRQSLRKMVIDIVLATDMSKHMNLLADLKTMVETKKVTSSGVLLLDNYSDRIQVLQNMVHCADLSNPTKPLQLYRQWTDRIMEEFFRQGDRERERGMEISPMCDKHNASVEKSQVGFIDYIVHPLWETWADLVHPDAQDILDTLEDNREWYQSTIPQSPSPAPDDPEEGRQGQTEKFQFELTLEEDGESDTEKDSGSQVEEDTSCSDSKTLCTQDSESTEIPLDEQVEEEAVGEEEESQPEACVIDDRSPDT

For orientation: IC50 means the concentration that inhibits the measured activity by half. With `Cc1c(C(=O)Nc2ccc(F)cc2F)sc2ncnc(N3CCC(C)CC3)c12` [Compound 58], the IC50 was 1.5 µM in test [1]; above 2 µM in test [4]; above 2 µM in [7]; below 2 µM in test [8] (catalytic fragment, AC200 = [Compound] that doubles PDE activity, read-out: IC50 (or AC200), PDE4D2-CAT). For the same compound, the TNF was determined as 3345 pg/mL in [2] (3 HOURS) and 10030 pg/mL in test [2] (20 HOURS). The figures for the “TNF, % EtOH cntrl” value in [2] (3 HOURS) and in test [2] (20 HOURS) were 69.2% and 73.3%, respectively. Moreover, the “TNF alpha, % vehicle control” value in [2] (after 3 h.) came out at 61.2%; in [2] (after 20 h.), 53.8%. Besides, the remaining activity at 2 µM was determined as 16% in test [3]; 31% in test [5]; 31% in test [6]; 68% in test [7] (2 micromolar compound, read-out: percent of PDE activity present, PDE7A).
For the compound `Cc1ccc([N+](=O)[O-])cc1S(=O)(=O)N(C)C` [BRL50481, reference compound], the IC50 in test [9] was above 20 µM; in test [4], 18 µM; in test [7], 0.2 µM. For the same compound, the EC50 was 42 µM in test [10] (OD600 0.6, read-out: ED50 for 5FOA growth assays, PDE7B) and 1.3 µM in test [11] (OD600 0.6, read-out: ED50 for 5FOA growth assays, PDE7A).
What is called Ki is the dissociation constant of the complex between target and ligand, obtained from inhibition or displacement. Turning to `CN(C)c1ccc(/C=C/C=C2/C(=O)NC(=O)N(c3ccccc3)C2=O)cc1` [BC12], the “TNF alpha reduction, conclusion in words” value in test [2] is recorded as “shows activity”. For the same compound, the “PDE7B, 2 uM cpm” value in [4] (2 uM compound) turned out to be 2388 cpm. Further, the “effect on cAMP hydrolysis by PDE7B in vitro, in words” value in test [4] (E. coli-expressed catalytic domain) is recorded as “increases cAMP hydrolysis”. Moreover, the “PDE inhibitor profile, in words” value in test [12] is “PDE7 inhibitor that appears to activate PDE4D and PDE7B in vitro (not in vivo)”. The “5FOA growth response, PDE7B strain, in words” value in test [10] (setting [16]) is “most potent inhibitor, promoting growth at low micromolar concentrations”. In addition, the “inhibition of PDE7B from pulmonary endothelial cells, in words” value in [13] is reported as “potent inhibitor”. Further, the Ki in [13] (KI on PDE7 (PDE7B) from rat pulmonary endothelial cells, cell extracts) is around 0.2 µM. Further, in [13] (PDE7B, rat pulmonary endothelial cell extracts), the “KI lower than that of BRL50481” value is given as “approximately 100 fold”. The “apoptosis of lymphoma cells, in words” value in [14] is “apoptosis effect”. Further, in [15], the “activity in CLL assay, in words” value was “shows activity”. In addition, the “5FOA growth response, PDE7A strain, in words” value in test [11] (setting [16]) was “most potent inhibitor, promoting growth at low micromolar concentrations”. Moreover, the “PDE4D catalytic domain, 2 uM cpm” value in test [8] (2 uM compound) worked out at 3686 cpm. Also, in test [8] (2 micromolar compound, DMSO = 100, read-out: In vitro activation of PDE4D catalytic domain, % activity), the activity at 2 µM amounted to 133%.
